Target: T1, hFASN enzyme (full length) (Homo sapiens, UniProt P49327)
T1 construct: 10 μL hFASN enzyme (full length, 300 ng, purified in house); made in house
Experiment: Fatty Acid Synthase (FASN) inhibition scintillation proximity assay
Assay type: biochemical
Conditions: for inhibition at 10 µM: read-out: Human FASN % inhibition @ 10 μM, 10 μM test compound; for IC50: read-out: Human FASN pIC50 (converted)
Procedure: In this assay, inhibition of FASN activity is measured using ^3H-acetyl-CoA and malonyl-CoA as substrates. ^3H-Acetyl CoA is converted to ^3H-palmitate through a series of reactions by the FASN protein, which contains 7 functional domains and carries out 7 enzymatic reactions to ultimately produce ^3H-palmitate. The assay principle is based upon the fact that ^3H-acetyl-CoA is hydrophilic and the end product, ^3H-palmitate is hydrophobic.
10 μL assay buffer (100 mM KH2PO4 pH 7.5, 1 mM DTT) (20 μL in blanks) was added to a 384-well white optiplate plate (Perkin Elmer). 0.9 μL test compound (at concentrations of 30 μM, 10 μM, 3 μM, 1 μM, 0.30 μM, 0.10 μM, 0.03 μM and 0.01 μM)/DMSO and 10 μL hFASN enzyme (full length, 300 ng, purified in house) or 10 μL assay buffer was added to the wells. […] The reaction was stopped by adding 20 μL Streptavidin coupled imaging beads (25 mg/ml). After incubation for 30 minutes at room temperature in the dark, the 384 well plate was centrifuged at 1500 rpm for 3 minutes and was measured after at least 24 hrs by the LEADseeker™, measuring emission using a 610±20 nm pass filter.
where mLC and mHC were the means of the low control wells and high control wells on the plate, after manual exclusion of outliers. A plot of Controlmin versus test compound concentration was fitted to a 4-parameter logistic curve using a non-linear least squares regression method.

T1 sequence (P49327 whole entry): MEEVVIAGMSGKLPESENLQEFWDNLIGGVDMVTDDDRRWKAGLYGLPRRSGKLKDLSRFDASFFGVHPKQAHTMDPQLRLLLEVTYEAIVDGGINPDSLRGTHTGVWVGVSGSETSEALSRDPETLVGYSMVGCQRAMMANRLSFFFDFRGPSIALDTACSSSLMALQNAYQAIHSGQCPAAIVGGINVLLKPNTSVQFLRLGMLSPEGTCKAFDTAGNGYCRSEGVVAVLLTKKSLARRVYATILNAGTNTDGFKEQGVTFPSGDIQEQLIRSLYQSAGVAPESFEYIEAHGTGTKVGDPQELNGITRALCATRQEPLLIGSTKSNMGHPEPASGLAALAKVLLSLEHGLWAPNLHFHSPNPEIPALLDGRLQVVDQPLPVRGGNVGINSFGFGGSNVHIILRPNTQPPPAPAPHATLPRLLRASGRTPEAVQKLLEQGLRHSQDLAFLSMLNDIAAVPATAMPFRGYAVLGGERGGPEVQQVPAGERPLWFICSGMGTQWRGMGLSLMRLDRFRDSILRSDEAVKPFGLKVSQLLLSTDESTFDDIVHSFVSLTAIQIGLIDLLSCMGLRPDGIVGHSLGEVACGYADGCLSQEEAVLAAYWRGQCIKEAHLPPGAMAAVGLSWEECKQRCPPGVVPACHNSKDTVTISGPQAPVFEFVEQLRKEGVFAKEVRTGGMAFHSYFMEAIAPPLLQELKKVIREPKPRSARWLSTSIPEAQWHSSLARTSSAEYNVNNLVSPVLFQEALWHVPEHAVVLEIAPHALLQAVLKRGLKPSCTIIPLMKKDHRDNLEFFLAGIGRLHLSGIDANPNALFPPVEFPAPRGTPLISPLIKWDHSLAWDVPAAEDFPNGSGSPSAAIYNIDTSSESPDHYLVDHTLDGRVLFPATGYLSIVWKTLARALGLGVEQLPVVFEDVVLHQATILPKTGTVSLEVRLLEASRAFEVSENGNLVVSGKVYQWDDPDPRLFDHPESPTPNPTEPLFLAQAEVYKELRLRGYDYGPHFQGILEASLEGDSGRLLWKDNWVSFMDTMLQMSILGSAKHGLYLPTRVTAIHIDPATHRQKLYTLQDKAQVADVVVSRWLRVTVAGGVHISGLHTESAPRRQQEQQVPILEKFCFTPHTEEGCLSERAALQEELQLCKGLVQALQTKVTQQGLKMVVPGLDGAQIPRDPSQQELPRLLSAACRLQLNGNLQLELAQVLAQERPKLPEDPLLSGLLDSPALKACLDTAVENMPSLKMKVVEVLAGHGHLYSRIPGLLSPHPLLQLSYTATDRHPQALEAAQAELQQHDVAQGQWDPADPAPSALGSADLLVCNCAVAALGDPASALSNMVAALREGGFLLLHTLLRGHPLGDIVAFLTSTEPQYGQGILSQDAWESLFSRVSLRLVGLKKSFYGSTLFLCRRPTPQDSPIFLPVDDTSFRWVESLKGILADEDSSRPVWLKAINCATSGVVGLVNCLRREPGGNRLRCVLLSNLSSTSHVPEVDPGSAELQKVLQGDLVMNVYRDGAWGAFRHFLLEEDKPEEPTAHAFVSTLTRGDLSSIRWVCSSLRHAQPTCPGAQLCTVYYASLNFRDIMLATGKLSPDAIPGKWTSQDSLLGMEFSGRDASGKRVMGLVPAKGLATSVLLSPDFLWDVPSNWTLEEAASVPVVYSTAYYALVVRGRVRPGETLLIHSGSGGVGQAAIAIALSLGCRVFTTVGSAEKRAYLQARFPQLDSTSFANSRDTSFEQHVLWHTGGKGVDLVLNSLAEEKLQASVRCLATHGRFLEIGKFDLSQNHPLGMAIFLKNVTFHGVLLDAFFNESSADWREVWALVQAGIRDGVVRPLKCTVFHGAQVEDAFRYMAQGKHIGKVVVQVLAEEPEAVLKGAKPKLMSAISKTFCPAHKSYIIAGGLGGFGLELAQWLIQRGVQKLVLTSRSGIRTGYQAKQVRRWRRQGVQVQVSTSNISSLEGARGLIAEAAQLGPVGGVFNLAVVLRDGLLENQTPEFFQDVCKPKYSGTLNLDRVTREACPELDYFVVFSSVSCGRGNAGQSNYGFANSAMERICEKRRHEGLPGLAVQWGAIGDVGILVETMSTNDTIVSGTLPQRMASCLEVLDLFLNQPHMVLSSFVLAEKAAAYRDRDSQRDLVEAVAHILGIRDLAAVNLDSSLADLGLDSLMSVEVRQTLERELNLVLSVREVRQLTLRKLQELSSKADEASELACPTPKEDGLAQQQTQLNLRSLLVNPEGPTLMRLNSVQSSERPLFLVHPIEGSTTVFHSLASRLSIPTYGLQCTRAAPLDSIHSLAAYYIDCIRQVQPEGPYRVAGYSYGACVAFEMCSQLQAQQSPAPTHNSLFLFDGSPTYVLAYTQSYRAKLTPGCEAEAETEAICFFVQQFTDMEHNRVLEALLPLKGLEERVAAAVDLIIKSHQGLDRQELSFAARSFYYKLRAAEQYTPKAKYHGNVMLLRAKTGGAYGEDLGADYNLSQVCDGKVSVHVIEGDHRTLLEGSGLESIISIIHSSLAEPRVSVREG

inhibition at 10 µM [%] | IC50 [µM] | Structure (SMILES)
71 | 2.69 | O=C(N1CCCC1)N1CC(CN2C(=O)C3(CCOCC3)N=C2c2ccc(-c3ccc4occc4c3)cc2)C1 [compound 705, 2-[4-(1-Benzofuran-5-yl)phenyl]-3-{[1-(pyrrolidin-1-ylcarbonyl)azetidin-3-yl]methyl}-8-oxa-1,3-diazaspiro[4.5]dec-1-en-4-one]
28.6 | > 10 | O=C(C1CC1)N1CCC(CN2C(=O)C3(CC3)N=C2c2ccc(-c3ccc4ocnc4c3)cc2)CC1 [compound 37, 5-[4-(1,3-Benzoxazol-5-yl)phenyl]-6-{[1-(cyclopropylcarbonyl)piperidin-4-yl]methyl}-4,6-diazaspiro[2.4]hept-4-en-7-one]
-0.97 | > 10 | CN1CCN(c2ccc(-c3ccc(C4=NC5(CCCC5)C(=O)N4C[C@@H]4CCN(C(=O)C5CC5)C4)cc3)cn2)CC1 [compound 44, 3-{[(3R)-1-(Cyclopropylcarbonyl)pyrrolidin-3-yl]methyl}-2-{4-[6-(4-methylpiperazin-1-yl)pyridin-3-yl]phenyl}-1,3-diazaspiro[4.4]non-1-en-4-one]
65 | 3.31 | Cn1ncc2cc(-c3cnc(C4=NC5(CC5)C(=O)N4C[C@@H]4CCN(C(=O)C5CC5)C4)nc3)ccc21 [compound 438, 6-{[(3R)-1-(Cyclopropylcarbonyl)pyrrolidin-3-yl]methyl}-5-[5-(1-methyl-1H-indazol-5-yl)pyrimidin-2-yl]-4,6-diazaspiro[2.4]hept-4-en-7-one]
33 | > 10 | O=C(C1CC1)N1CCC[C@@H](CN2C(=O)C3(CC3)N=C2c2ccc(-c3ccc(-c4cccc(Cl)c4)cc3)cc2)C1 [compound 820, (R)-5-(3″-chloro-[1,1′:4′,1″-terphenyl]-4-yl)-6-((1-(cyclopropanecarbonyl)piperidin-3-yl)methyl)-4,6-diazaspiro[2.4]hept-4-en-7-one]
80 | 1.17 | CCn1ncc2cc(-c3ccc(C4=NC5(CC5)C(=O)N4CC4CN(C(=O)C5CC5)C4)cc3)ccc21 [compound 505, 6-{[1-(Cyclopropylcarbonyl)azetidin-3-yl]methyl}-5-[4-(1-ethyl-1H-indazol-5-yl)phenyl]-4,6-diazaspiro[2.4]hept-4-en-7-one]
30 | > 10 | O=C(C1CC1)N1CC(CN2C(=O)C3(CC3)N=C2c2ccc(-c3ccc(C4CC4)nc3)cc2)C1 [compound 798, 6-((1-(cyclopropanecarbonyl)azetidin-3-yl)methyl)-5-(4-(6-cyclopropylpyridin-3-yl)phenyl)-4,6-diazaspiro[2.4]hept-4-en-7-one]
43 | > 10 | COC(=O)N1CC2(C1)N=C(c1ccc(-c3ccc4cccnc4c3)cc1)N(C[C@@H]1CCN(C(=O)c3nccs3)C1)C2=O [compound 962, (R)-methyl 8-oxo-6-(4-(quinolin-7-yl)phenyl)-7-((1-(thiazole-2-carbonyl)pyrrolidin-3-yl)methyl)-2,5,7-triazaspiro[3.4]oct-5-ene-2-carboxylate]
1 | > 10 | CS(=O)(=O)N1CC(CN2C(=O)C3(CCOCC3)N=C2c2ccc(-c3ccc4cccnc4c3)cc2)C1 [compound 912, 3-((1-(methylsulfonyl)azetidin-3-yl)methyl)-2-(4-(quinolin-7-yl)phenyl)-8-oxa-1,3-diazaspiro[4.5]dec-1-en-4-one]
59.5 | 6.31 | Cc1cc2cc(-c3ccc(C4=NC5(CC5)C(=O)N4CC4CN(C(=O)C5CC5)C4)cc3C)ccc2o1 [compound 179, 6-{[1-(Cyclopropylcarbonyl)azetidin-3-yl]methyl}-5-[3-methyl-4-(2-methyl-1-benzofuran-5-yl)phenyl]-4,6-diazaspiro[2.4]hept-4-en-7-one]
109 | 0.123 | CC(=O)N1CCC2(CC1)N=C(c1ccc(-c3ccc4sc(C)c(C)c4c3)cc1)N(C[C@@H]1CCN(C(=O)C3CC3)C1)C2=O [compound 181, 8-Acetyl-3-{[(3R)-1-(cyclopropylcarbonyl)pyrrolidin-3-yl]methyl}-2-[4-(2,3-dimethyl-1-benzothiophen-5-yl)phenyl]-1,3,8-triazaspiro[4.5]dec-1-en-4-one]
11 | > 10 | CS(=O)(=O)N1CC(CN2C(=O)C3(CCOC3)N=C2c2ccc(-c3ccc4cccnc4c3)cc2)C1 (stereo not drawn) [compound 942, 3-((1-(methylsulfonyl)azetidin-3-yl)methyl)-2-(4-(quinolin7-yl)phenyl)-7-oxa-1,3-diazaspiro[4.4]non-1-en-4-one]
108 | 0.0794 | O=C([C@H]1CCCO1)N1CC[C@@H](CN2C(=O)C3(CCCC3)N=C2c2ccc(-c3ccc4occc4c3)cc2)C1 [compound 191, 2-[4-(1-Benzofuran-5-yl)phenyl]-3-({(3R)-1-[(2R)-tetrahydro-furan-2-ylcarbonyl]pyrrolidin-3-yl}methyl)-1,3-diazaspiro[4.4]non-1-en-4-one]
29.7 | > 10 | Cn1cc(-c2ccc(C3=NC4(CCCC4)C(=O)N3C[C@@H]3CCN(C(=O)C4CC4)C3)cc2)cn1 [compound 13, 3-{[(3R)-1-(Cyclopropylcarbonyl)pyrrolidin-3-yl]methyl}-2-[4-(1-methyl-1H-pyrazol-4-yl)phenyl]-1,3-diazaspiro[4.4]non-1-en-4-one]
85 | 1.23 | Cc1ccc2ccc(-c3ccc(C4=NC5(CC5)C(=O)N4CC4CN(C(=O)C5CC5)C4)cc3)cc2n1 [compound 513, 6-{[1-(Cyclopropylcarbonyl)azetidin-3-yl]methyl}-5-[4-(2-methylquinolin-7-yl)phenyl]-4,6-diazaspiro[2.4]hept-4-en-7-one]
66 | 2.82 | Cn1cc(-c2ccc(-c3ccc(C4=NC5(CCOC5)C(=O)N4CC4CN(C(=O)C5CC5)C4)cc3)cc2)cn1 (stereo not drawn) [compound 710, 3-{[1-(Cyclopropylcarbonyl)azetidin-3-yl]methyl}-2-[4′-(1-methyl-1H-pyrazol-4-yl)biphenyl-4-yl]-7-oxa-1,3-diazaspiro[4.4]non-1-en-4-one]
69 | 2.34 | Cn1nccc1-c1ccc(-c2ccc(C3=NC4(CC4)C(=O)N3C[C@@H]3CCN(C(=O)C4CC4)C3)cc2)cc1 [compound 407, 6-{[(3R)-1-(Cyclopropylcarbonyl)pyrrolidin-3-yl]methyl}-5-[4′-(1-methyl-1H-pyrazol-5-yl)biphenyl-4-yl]-4,6-diazaspiro[2.4]hept-4-en-7-one]
5 | > 10 | Cc1ccc(-c2ccc(-c3ccc(C4=NC5(CC5)C(=O)N4C[C@H]4CCCN(C(=O)C5CC5)C4)cc3)cc2)cc1 [compound 812, (S)-6-((1-(cyclopropanecarbonyl)piperidin-3-yl)methyl)-5-(4″-methyl[1,1′:4′,1″- terphenyl]-4-yl)-4,6-diazaspiro[2.4]hept-4-en-7-one]
37 | > 10 | Cn1ncc2cc(-c3ccc(C4=NC5(CCOCC5)C(=O)N4C[C@@H]4CCN(C(=O)C(F)(F)F)C4)cc3)ccc21 [compound 890, (R)-2-(4-(1-methyl-1H-indazol-5-yl)phenyl)-3-((1-(2,2,2-trifluoroacetyl)pyrrolidin-3-yl)methyl)-8-oxa-1,3-diazaspiro[4.5]dec-1-en-4-one]
113 | 0.105 | CC(=O)N1CCC2(CC1)N=C(c1ccc(-c3ccc4occc4c3)cc1)N(C[C@@H]1CCN(C(=O)C3CC3)C1)C2=O [compound 150, 8-Acetyl-2-[4-(1-benzofuran-5-yl)phenyl]-3-{[(3R)-1-(cyclopropylcarbonyl)pyrrolidin-3-yl]methyl}-1,3,8-triazaspiro[4.5]dec-1-en-4-one]
2 | > 10 | O=C(c1nccs1)N1CC(CN2C(=O)C3(CCOC3)N=C2c2ccc(-c3ccc4occc4c3)cc2)C1 (stereo not drawn) [compound 932, 2-(4-(benzofuran-5-yl)phenyl)-3-((1-(thiazole-2-carbonyl)azetidin-3-yl)methyl)-7-oxa-1,3-diazaspiro[4.4]non-1-en-4-one]
7 | > 10 | CC(C)n1ncc2cc(-c3ccc(C4=NC5(CC5)C(=O)N4CC4CN(C(=O)C5CC5)C4)cc3)ccc21 [compound 807, 6-((1-(cyclopropanecarbonyl)azetidin-3-yl)methyl)-5-(4-(1-isopropyl-1H-indazol-5-yl)phenyl)-4,6-diazaspiro[2.4]hept-4-en-7-one]
-6 | > 10 | O=C(C1CC1)N1CC(CN2C(=O)C3(CC3)N=C2c2ccc(-c3ccc(N4CCOCC4)nc3)cc2)C1 [compound 806, 6-((1-(cyclopropanecarbonyl)azetidin-3-yl)methyl)-5-(4-(6-morpholinopyridin-3-yl)phenyl)-4,6-diazaspiro[2.4]hept-4-en-7-one]
-7 | > 10 | COC(=O)N1CC(CN2C(=O)C3(CCOC3)N=C2c2ccc(-c3ccc4c(cnn4C)c3)cc2)C1 (stereo not drawn) [compound 905, methyl 3-((2-(4-(1-methyl-1H-indazol-5-yl)phenyl)-4-oxo-7-oxa-1,3-diazaspiro[4.4]non-1-en-3-yl)methyl)azetidine-1-carboxylate]

— patent US10077261B2, “Imidazolin-5-one derivative useful as FASN inhibitors for the treatment of cancer” (Janssen Pharmaceutica NV, priority 2012, dated 2018)
